Reference: publication PMC8507746, “The FHP01 DDX3X Helicase Inhibitor Exerts Potent Anti-Tumor Activity In Vivo in Breast Cancer Pre-Clinical Models” (Cancers, 2021)
Where two headings read alike, the source gives them in different places.

Tests used:
MDA MB 231 cells = experiment: Cell viability / cytotoxicity assay (cell counting); format: cell-based; details: Homo sapiens
Method: (§1) Cells were seeded at 3–5 × 10^4 cells/well density (depending on cell lines) in 12-well plates, in triplicate, and maintained at 37 °C in 5% CO2. After 24 h, cells were treated with different concentrations of indicated drugs in a range from 0 to 100 μM (0, 0.1, 1, 10, 50, 100 μM). […] Cell number of each sample was determined with Z2 Coulter Counter (Beckman Coulter, Brea, CA, USA), in triplicate. Data about cell viability were plotted in GraphPad Prism 8.0 software (GraphPad Software, San Diego, CA, USA) to draw dose-response curve and to calculate IC50.

MDA MB 468 cells = experiment: as above; format: cell-based; details: Homo sapiens
Method: as §1

PBMCs = experiment: Cell viability assay in peripheral blood mononuclear cells; format: cell-based; details: up to a concentration of 50 μM, 72 h
Method: Two days before the assay, phytohemagglutinin-A (PHA) 2 µg/mL was added to the PBMC culture. Cells were seeded at 13 × 10^4 cells/well in triplicate and maintained at 37 °C in 5% CO2. After 24 h, cells were treated with 10 μM and 50 μM of indicated drugs. After 72 h incubation, cells were washed in PBS and harvested. Cell number of each sample was determined with Z2 Coulter Counter (Beckman Coulter), in triplicate. Data about cell viability were plotted in GraphPad Prism 8.0 software 100% viability corresponding to vehicle (DMSO) treated PBMCs.

[1] = Drug distribution to brain and liver in mice; format: in vivo, Swiss Albino mice; details: for Kp at 4 h / Kp at 8 h: male, Swiss Albino, mouse, ip, 10 mg/kg, ng/g normalized against ng/mL
Method: These studies were performed at the GVKBioscience Pvt. LTD Contract Research and Development Organization (CRDO). Animals were housed in cages with clean bedding. Adult Swiss Albino male mice (weight = 20–35 g) were maintained and monitored for good health in accordance with GVKBioscience Pvt. LTD Test Facility SOPs and at the discretion of the laboratory animal veterinarian. Certified rodent diet was provided, and water was available ad libitum. A periodic analysis of the water was performed, and the results have been archived at the Test Facility. Environmental controls for the animal room were set to maintain a temperature of 22 to 25 °C, humidity of 40–70% relative humidity, and a 12-h light/12-h dark cycle. Animals have been dosed i.v. with 1 mg/kg of FHP01 i.p. with 10 mg/kg of compound or p.o. through gastric gavage needle with 50 mg/kg of compound. Next, mice were anesthetized using gaseous anesthesia and blood samples were collected at each time point, from 3 mice of respective group. After collection of blood samples at each time point, the blood samples were stored on ice, prior to centrifugation. Blood samples were centrifuged at 1540 rcf (5000 rpm), 4 °C for 10 min to separate plasma. Plasma was transferred to pre-labeled micro-centrifuge tubes and promptly frozen at −80 °C until analysis. Samples have been identified by test item, group, animal number, and collection time point. A fit-for-purpose bioanalytical method was developed for analyzing the plasma samples. One set of nine standards have been run before the sample batch and used for plotting the calibration curve. Quality control (QC) samples have been prepared at a minimum of three concentrations, i.e., LQC (not more than 5 times to that of lowest standard concentration), HQC (not less than 75% of the highest standard concentration), and MQC (between the low and high concentration). Minimum of 6 QC samples (three concentrations in duplicate). One Set of QC (LQC, MQC, and HQC) samples have been analyzed before and after the sample batch.
For the analyses of drug distribution to brain and liver, whole body perfusion was performed using chilled saline in the defined group of animals followed by decapitation for tissue collection. The chest of the mice was exposed, the abdominal aorta was clamped, and both jugular veins were cut. Intra-cardial perfusion was performed through an insertion in the left ventricle. Mice brains and livers have been collected and immediately washed, dried, weighed and freeze at −80 °C until homogenization. The protocol has been reviewed and approved by the Institutional Animal Ethics Committee (IAEC).

[2] = Tolerability in xenograft study: body weight and organ histology; format: in vivo, athymic nude mice
Method: Animal experiments were performed in accordance with current Italian legislation and the animal protocol has been reviewed and approved by Italian Ministero della Salute (authorization n. 886/2020-PR). The study was designed to verify the effect of newly synthetized molecule with DDX3X inhibitor activity administered via i.p at a concentration of 45 mg/kg on the tumor growth of xenograft MDA MB 231 human breast cancer cells. In the study, n refers to the number of tumors expressed on both flanks of the animals. The sample size was calculated by g-power calculator placing a predictable large (2-fold increase) effect size, alpha as 0.05, and a confidence interval of 95% and we set our experimental unit number of 10 (corresponding to 5 animals). Total number of animals used in the study was 10. Six-week-old athymic nude mice were purchased from Charles River Laboratories. Five animals in each cage acclimatized in our animal facilities for 5 days in individually ventilated cages. Animals were fed with the lab diet ad libitum and water was accessible at all times and kept under standard specific pathogen-free conditions of 12 h light/dark cycle. Observational analysis was performed at the beginning of experimental procedure to ensure animal wellbeing (Table S1). […]

[3] = brain/plasma, i.p. administration, read-out: BRAIN/PLASMA
[4] = liver/plasma, i.p. administration, read-out: LIVER/PLASMA

tissue concentration ([1]; 24 h after administration): below the level of quantitation
BRAIN/PLASMA ([1]; i.p. administration, 12h): BLQ
LIVER/PLASMA ([1]; i.p. administration, 12h): BLQ
Kp at 4 h [1, 3]: 0.5 ± 0.24
Kp at 8 h [1, 3]: 3.14 ± 0.74
Kp at 4 h [1, 4]: 3.75 ± 1.06
Kp at 8 h [1, 4]: 6.32 ± 2.23
Compound: CCCCc1cn(-c2ccc(NC(=O)Nc3ccccc3C(F)(F)F)cc2)nn1 [FHP01]
IC50 (MDA MB 231 cells; MDA MB 231, 24h): 13.3 µM
IC50 (MDA MB 231 cells; MDA MB 231, 48h): 4.14 µM
IC50 (MDA MB 231 cells; MDA MB 231, 72 h): 3.21 µM
IC50 (MDA MB 468 cells; MDA MB 468, 24h): 12.7 µM
IC50 (MDA MB 468 cells; MDA MB 468, 48h): 3.48 µM
IC50 (MDA MB 468 cells; MDA MB 468, 72 h): 3.06 µM
effect on viability of normal PBMC (PBMCs): no effect
animal body weight ([2]; 45 mg/kg i.p. 3 times a week, all the treatment period): No loss of animal body weight
histology of liver, brain, spleen and kidney ([2]; after 4 weeks of i.p. treatment, 45 mg/kg): did not show any sign of toxicity
